14 compounds from ChEMBL document CHEMBL4266003, “New Dopamine D3-Selective Receptor Ligands Containing a 6-Methoxy-1,2,3,4-tetrahydroisoquinolin-7-ol Motif” (ACS Med Chem Lett, 2018) can be followed below.

The species named for test [1] is Homo sapiens. Description: Selectivity ratio of Ki for human dopamine D1 receptor expressed in HEKT cell membranes to Ki for human dopamine D3 receptor expressed in HEKT cell membranes. It counts as cell-based.
In test [2] the target is T1, D(3) dopamine receptor (Homo sapiens, UniProt P35462). Description: Displacement of [3H]N-Methylspiperone from human dopamine D3 receptor expressed in HEKT cell membranes. In general terms: Displacement assays read how much labelled ligand stays bound in the presence of the test substance.
T1 sequence (P35462 whole entry): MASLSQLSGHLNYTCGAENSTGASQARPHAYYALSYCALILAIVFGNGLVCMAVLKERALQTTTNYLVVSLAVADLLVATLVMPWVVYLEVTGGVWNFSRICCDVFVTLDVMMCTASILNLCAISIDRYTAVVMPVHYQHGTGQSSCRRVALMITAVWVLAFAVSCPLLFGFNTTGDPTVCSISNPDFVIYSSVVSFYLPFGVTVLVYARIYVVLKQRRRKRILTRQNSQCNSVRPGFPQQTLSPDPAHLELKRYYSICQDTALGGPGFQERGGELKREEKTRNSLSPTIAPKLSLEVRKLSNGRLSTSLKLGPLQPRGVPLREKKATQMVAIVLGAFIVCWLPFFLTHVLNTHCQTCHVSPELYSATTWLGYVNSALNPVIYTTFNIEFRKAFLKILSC
A further test concerns the target T2, D(4) dopamine receptor (Homo sapiens, UniProt P21917).
T2 sequence (P21917 whole entry): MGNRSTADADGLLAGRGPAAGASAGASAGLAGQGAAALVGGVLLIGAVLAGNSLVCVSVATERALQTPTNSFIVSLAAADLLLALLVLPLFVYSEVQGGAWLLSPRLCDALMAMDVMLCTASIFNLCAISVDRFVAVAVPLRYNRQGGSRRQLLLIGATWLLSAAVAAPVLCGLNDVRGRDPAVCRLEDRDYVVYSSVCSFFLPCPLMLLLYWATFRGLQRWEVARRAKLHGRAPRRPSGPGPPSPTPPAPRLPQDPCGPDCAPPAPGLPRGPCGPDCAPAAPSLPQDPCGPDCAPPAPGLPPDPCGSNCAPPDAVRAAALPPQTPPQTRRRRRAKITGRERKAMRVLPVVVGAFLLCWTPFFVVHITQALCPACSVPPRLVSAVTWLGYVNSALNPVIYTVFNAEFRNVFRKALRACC
Description: Displacement of [3H]N-Methylspiperone from human dopamine D4 receptor expressed in HEK cell membranes.

For test [3], the target named is T3, D(2) dopamine receptor (Homo sapiens, UniProt P14416). As to the kind of experiment: Inhibition of human dopamine D2 receptor expressed in HEKT cell membranes at 10 uM relative to control. Format: cell-based.
T3 sequence (P14416 whole entry): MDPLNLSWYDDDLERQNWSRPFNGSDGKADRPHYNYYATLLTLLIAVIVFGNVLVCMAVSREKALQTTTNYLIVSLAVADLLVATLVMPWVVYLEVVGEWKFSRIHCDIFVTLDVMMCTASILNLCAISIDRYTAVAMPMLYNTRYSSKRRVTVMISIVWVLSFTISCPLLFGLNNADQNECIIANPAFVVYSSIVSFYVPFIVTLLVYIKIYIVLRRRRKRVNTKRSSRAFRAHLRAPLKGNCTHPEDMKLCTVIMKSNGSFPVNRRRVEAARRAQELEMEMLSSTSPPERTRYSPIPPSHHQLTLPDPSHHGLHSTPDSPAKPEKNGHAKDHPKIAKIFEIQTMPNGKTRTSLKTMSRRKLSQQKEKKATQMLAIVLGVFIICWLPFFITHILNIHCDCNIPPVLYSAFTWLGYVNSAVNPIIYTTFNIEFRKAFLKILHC
Test [4] has as its target T4, D(1A) dopamine receptor (Homo sapiens, UniProt P21728). As to the kind of experiment: Displacement of [3H]SCH23390 from human dopamine D1 receptor expressed in HEKT cell membranes.
In test [5] the target is T4, D(1A) dopamine receptor. Description: Inhibition of human dopamine D1 receptor expressed in HEKT cell membranes at 10 uM relative to control. Format: cell-based.
Test [6] has as its target T5, D(4) dopamine receptor (Homo sapiens) (UniProt P21917).
T5 sequence (whole entry): T2 sequence (P21917 whole entry)
Description: Inhibition of human dopamine D4 receptor expressed in HEKT cell membranes at 10 uM relative to control. It counts as cell-based.

Test [7] has as its target T1, D(3) dopamine receptor. Description: Agonist activity at human dopamine D3 receptor assessed as beta-arrestin recruitment by Tango assay. It counts as functional. In general terms: Recruitment of arrestin is a read-out of receptor activation apart from second messengers.
Test [8] concerns the target T1, D(3) dopamine receptor. As to the kind of experiment: Antagonist activity at human dopamine D3 receptor assessed as inhibition of beta-arrestin recruitment by Tango assay. It counts as functional.
The species named for test [9] is Homo sapiens. As to the kind of experiment: Selectivity ratio of Ki for human dopamine D2 receptor expressed in fibroblasts to Ki for human dopamine D3 receptor expressed in HEKT cell membranes. It counts as cell-based.
For test [10], the target named is T3, D(2) dopamine receptor. As to the kind of experiment: Displacement of [3H]N-Methylspiperone from human dopamine D2 receptor expressed in fibroblasts.

Calls of active or inactive are those of the source. The rule behind the calls is not given here.

T4 sequence (P21728 whole entry): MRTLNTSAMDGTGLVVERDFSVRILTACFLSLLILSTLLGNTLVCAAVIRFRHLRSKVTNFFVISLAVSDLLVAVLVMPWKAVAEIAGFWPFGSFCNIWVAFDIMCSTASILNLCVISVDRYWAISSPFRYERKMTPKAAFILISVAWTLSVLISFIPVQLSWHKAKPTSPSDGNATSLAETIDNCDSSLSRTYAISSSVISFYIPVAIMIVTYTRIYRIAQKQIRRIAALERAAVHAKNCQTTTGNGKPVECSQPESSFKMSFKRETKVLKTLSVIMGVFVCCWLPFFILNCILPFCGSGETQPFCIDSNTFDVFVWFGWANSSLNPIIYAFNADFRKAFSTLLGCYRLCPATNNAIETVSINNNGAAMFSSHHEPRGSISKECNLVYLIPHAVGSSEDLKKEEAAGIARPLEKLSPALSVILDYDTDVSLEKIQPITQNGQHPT

The Ki is a measure of affinity in units of concentration, obtained from inhibition or displacement. A higher Ki goes with lower affinity. The term inhibition denotes the relative decrease from the control value, in per cent. The low end stands for a weak effect, the high end for a strong effect. For `COc1cc2c(cc1O)CN(CCCCNC(=O)c1ccnc3ccccc13)CC2`, the Ratio Ki in the test listed under Homo sapiens [1] was 82. Moreover, the values for the Ki at D(3) dopamine receptor [2], on D(4) dopamine receptor and on D(1A) dopamine receptor [4] were 22 nM, 410 nM and 1810 nM, respectively. Besides, the inhibition against D(2) dopamine receptor [3] was below 50%.
With `COc1cc2c(cc1O)CN(CCCCNC(=O)c1ccncc1)CC2`, the inhibition against D(1A) dopamine receptor [5] and at D(2) dopamine receptor [3] was below 50% each time. The Ki came to 24 nM at D(3) dopamine receptor [2] and 1400 nM at D(4) dopamine receptor.
`COc1cc2c(cc1OC)CN(CCCCNC(=O)c1ccc(C#N)cc1)CC2`: the inhibition (on D(1A) dopamine receptor [5]; in test [6]; against D(2) dopamine receptor [3]) was below 50% each time. This compound showed a Ki at D(3) dopamine receptor [2] of 410 nM.
As a reminder, the EC50 is the midpoint of the concentration-response curve. On to `COc1cc2c(cc1O)CN(CCCCNC(=O)c1ccc(O)cc1)CC2`, for which the inhibition against D(1A) dopamine receptor [5] and against D(2) dopamine receptor [3] was below 50% each time. Also, the Ki on D(3) dopamine receptor [2] was 8.7 nM; at D(4) dopamine receptor, 660 nM. Also, the outcome on D(3) dopamine receptor [7] was inactive. Also, the half-maximal effective concentration (EC50) on D(3) dopamine receptor [8] is 420 nM.
`COc1cc2c(cc1O)CN(CCCCNC(=O)c1ccc(Cl)cc1)CC2`: the Ratio Ki in the test filed under Homo sapiens [9] was 524; in the test listed under Homo sapiens [1], 323. In addition, the Ki at D(3) dopamine receptor [2] was 2.1 nM; at D(2) dopamine receptor [10], 1100 nM; on D(4) dopamine receptor, 140 nM; on D(1A) dopamine receptor [4], 680 nM.
On to `COc1cc2c(cc1O)CN(CCCCNC(=O)c1ccc(F)cc1)CC2`, for which the inhibition on D(1A) dopamine receptor [5] and on D(2) dopamine receptor [3] was below 50% throughout. Further, the Ki on D(3) dopamine receptor [2] worked out at 4.4 nM; at D(4) dopamine receptor it was 95 nM. At D(3) dopamine receptor [7], the result was inactive. At D(3) dopamine receptor [8], the EC50 stood at 490 nM.
On to `COc1cc2c(cc1O)CN(CCCCNC(=O)c1ccc(C#N)cc1)CC2`, for which the inhibition (at D(1A) dopamine receptor [5]; in test [6]; against D(2) dopamine receptor [3]) was below 50% throughout. Also, affinity at D(3) dopamine receptor [2] was put at a Ki of 6.3 nM. Besides, at D(3) dopamine receptor [7], the result was inactive. Besides, the EC50 at D(3) dopamine receptor [8] was 1400 nM.
In the case of `COc1cc2c(cc1O)CN(CCCCNC(=O)c1ccc(I)cc1)CC2`, the Ratio Ki in the test listed under Homo sapiens [1] worked out at 160. Besides, the Ki came out at 10 nM at D(3) dopamine receptor [2], 1500 nM at D(4) dopamine receptor and 1600 nM at D(1A) dopamine receptor [4]. At D(2) dopamine receptor [3], the inhibition is below 50%.
Turning to `COc1ccc(C(=O)NCCCCN2CCc3cc(OC)c(O)cc3C2)cc1`, the inhibition at D(1A) dopamine receptor [5] and against D(2) dopamine receptor [3] was below 50% throughout. Further, the Ki at D(3) dopamine receptor [2] came to 5.9 nM; on D(4) dopamine receptor, 560 nM. Moreover, the result on D(3) dopamine receptor [7] was inactive. For the same compound, the EC50 on D(3) dopamine receptor [8] is 360 nM.
As to `COc1cccc(C(=O)NCCCCN2CCc3cc(OC)c(O)cc3C2)c1`, the inhibition at D(1A) dopamine receptor [5] and against D(2) dopamine receptor [3] was below 50% in each case. In addition, the inhibition constant Ki on D(3) dopamine receptor [2] was 12 nM; at D(4) dopamine receptor, 150 nM.
With `COc1cc2c(cc1O)CN(CCCCNC(=O)c1ccc(-c3ccccc3)cc1)CC2`, the Ratio Ki in the test listed under Homo sapiens [9] and in the test filed under Homo sapiens [1] was 296 each time. In addition, the Ki at D(3) dopamine receptor [2] was 2.7 nM; on D(2) dopamine receptor [10], 800 nM; at D(4) dopamine receptor, 720 nM; on D(1A) dopamine receptor [4], 800 nM.
`COc1cc2c(cc1O)CN(CCCCNC(=O)c1ccc(C(N)=O)cc1)CC2`: in the test listed under Homo sapiens [9], the Ratio Ki is 31. Further, the inhibition (on D(1A) dopamine receptor [5]; in [6]) was below 50% in each case. Moreover, the values for the Ki at D(3) dopamine receptor [2] and at D(2) dopamine receptor [10] were 28 nM and 860 nM, respectively.
Turning to `COc1cc2c(cc1O)CN(CCCCNC(=O)c1ccc(Br)cc1)CC2`, the Ratio Ki in the test listed under Homo sapiens [9] was above 2940; in the test filed under Homo sapiens [1] it was 147. Also, the Ki is 3.4 nM at D(3) dopamine receptor [2], above 10000 nM on D(2) dopamine receptor [10], 350 nM at D(4) dopamine receptor and 500 nM on D(1A) dopamine receptor [4].
`COc1cc2c(cc1O)CN(CCCCNC(=O)c1ccc3ccccc3c1)CC2`: the Ratio Ki in the test listed under Homo sapiens [9] came to 260; in the test filed under Homo sapiens [1] it was 296. Also, the Ki at D(3) dopamine receptor [2] worked out at 2.7 nM; on D(2) dopamine receptor [10] it was 700 nM; at D(4) dopamine receptor it was 170 nM; at D(1A) dopamine receptor [4], 800 nM.
